Laboratory results reported in patent publication US5977133A, “Pyridone antibiotic with improved safety profile” (priority 1998, dated 1999).
Converted amounts (≈) assume the structure as drawn.

Experiments:
Assay type in all cases: cell-based
[1] = system: S. aureus (CiproS); assay: In vitro MIC, agar dilution; conditions: Staphylococcus aureus
[2] = system: S. aureus (CiproR); assay: In vitro MIC, agar dilution; conditions: Staphylococcus aureus, S. aureus (CiproR), 25 isolates
[3] = system: S. epidermidis (CiproS); assay: In vitro MIC, agar dilution; conditions: Staphylococcus epidermidis
[4] = system: S. pneumoniae (PenS); assay: In vitro MIC, agar dilution; conditions: Streptococcus pneumoniae
[5] = system: S. pneumoniae (PenR); assay: In vitro MIC, agar dilution; conditions: Streptococcus pneumoniae
[6] = system: S. pneumoniae (CiproR); assay: In vitro MIC, agar dilution; conditions: Streptococcus pneumoniae; S. pneumoniae (CiproR), 3 isolates; read-out: MIC Range
[7] = system: S. pyogenes; assay: In vitro MIC, agar dilution; conditions: Streptococcus pyogenes
[8] = system: E. faecium (CiproS); assay: In vitro MIC, agar dilution; conditions: Enterococcus faecium, E. faecium (CiproS), 16 isolates
[9] = system: E. faecium (CiproR); assay: In vitro MIC, agar dilution; conditions: Enterococcus faecium; E. faecium (CiproR), 2 isolates; read-out: MIC Range
[10] = system: E. faecium (VanS); assay: In vitro MIC, agar dilution; conditions: Enterococcus faecium
[11] = system: E. faecalis (VanS); assay: In vitro MIC, agar dilution; conditions: Enterococcus faecalis
[12] = system: Enterococcus spp. (VanR); assay: In vitro MIC, agar dilution; conditions: Enterococcus spp. (VanR), 21 isolates
[13] = system: E. coli; assay: In vitro MIC, agar dilution; conditions: Escherichia coli, 25 isolates
Summary of the method: (§1)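 Agar dilution plates were inoculated with ~10^4 CFU per spot by replicator, using 1:100 dilutions (1:10 for slow growers) and incubated at 35–37 °C for 20–24 h. MIC is the lowest concentration giving no growth, where slight haze or sparse colonies count as none, judged against a compound-free BHI agar control.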

[14] = system: Salmonella spp.; assay: In vitro MIC, agar dilution; conditions: 23 isolates
Summary of the method: as §1

[15] = system: Shigella spp.; assay: microbe, parasite or virus in culture; conditions: read-out: MIC Range
[16] = system: Klebsiella spp.; assay: In vitro MIC, agar dilution
[17] = system: P. mirabilis; assay: In vitro MIC, agar dilution; conditions: Proteus mirabilis
[18] = system: Providencia spp.; assay: In vitro MIC, agar dilution
[19] = system: Enterobacter spp.; assay: In vitro MIC, agar dilution; conditions: Enterobacter
[20] = system: P. aeruginosa (CiproS); assay: In vitro MIC, agar dilution; conditions: Pseudomonas aeruginosa
[21] = system: P. aeruginosa (CiproR); assay: In vitro MIC, agar dilution; conditions: Pseudomonas aeruginosa
[22] = system: C. difficile; assay: In vitro MIC, agar dilution; conditions: Clostridioides difficile
[23] = system: C. perfringens; assay: microbe, parasite or virus in culture; conditions: Clostridium perfringens
[24] = system: H. influenzae; assay: In vitro MIC, agar dilution; conditions: Haemophilus influenzae, H. influenzae, 18 isolates
[25] = system: Legionella spp.; assay: microbe, parasite or virus in culture; conditions: Legionella
[26] = system: M. pneumoniae; assay: In vitro MIC, agar dilution; conditions: Mycoplasmoides pneumoniae; M. pneumoniae, 7 isolates; read-out: MIC Range
[27] = system: N. gonorrhoeae; assay: In vitro MIC, agar dilution; conditions: Neisseria gonorrhoeae
[28] = system: H. pylori; assay: In vitro MIC, agar dilution; conditions: Helicobacter pylori
[29] = system: M. avium; assay: In vitro MIC, agar dilution; conditions: Mycobacterium avium

## NC1CCN(c2c(F)cc3c(=O)c(C(=O)O)cn(C4CC4)c3c2Cl)C1 (stereo not drawn) [Clinafloxacin, clinafloxacin]
[1]
  MIC50: 0.03 µg/mL (≈ 0.082 µM)
  MIC90: 0.03 µg/mL (≈ 0.082 µM)
[1]; S. aureus (CiproS), 21 isolates, read-out: MIC Range
  MIC: 0.015 to 0.03 µg/mL (≈ 0.041 to 0.082 µM)
[2]; read-out: MIC50
  MIC50: 0.5 µg/mL (≈ 1.37 µM)
[2]; read-out: MIC90
  MIC90: 1 µg/mL (≈ 2.73 µM)
[2]; read-out: MIC Range
  MIC: 0.25 to 2 µg/mL (≈ 0.683 to 5.47 µM)
[3]
  MIC50: 0.03 µg/mL (≈ 0.082 µM)
  MIC90: 0.03 µg/mL (≈ 0.082 µM)
[3]; S. epidermidis (CiproS), 23 isolates, read-out: MIC Range
  MIC: 0.015 to 0.06 µg/mL (≈ 0.041 to 0.164 µM)
[4]
  MIC90: 0.12 µg/mL (≈ 0.328 µM)
[4]; S. pneumoniae (PenS), 20 isolates, read-out: MIC50
  MIC50: 0.06 µg/mL (≈ 0.164 µM)
[4]; S. pneumoniae (PenS), 20 isolates, read-out: MIC Range
  MIC: 0.03 to 0.12 µg/mL (≈ 0.082 to 0.328 µM)
[5]
  MIC90: 0.25 µg/mL (≈ 0.683 µM)
[5]; read-out: MIC Range
  MIC: 0.06 to 0.25 µg/mL (≈ 0.164 to 0.683 µM)
[5]; S. pneumoniae (PenR), 25 isolates, read-out: MIC50
  MIC50: 0.12 µg/mL (≈ 0.328 µM)
[6]
  MIC: 0.12 µg/mL (≈ 0.328 µM)
[7]
  MIC90: 0.06 µg/mL (≈ 0.164 µM)
[7]; read-out: MIC Range
  MIC: 0.06 to 0.12 µg/mL (≈ 0.164 to 0.328 µM)
[7]; S. pyogenes, 21 isolates, read-out: MIC50
  MIC50: 0.06 µg/mL (≈ 0.164 µM)
[8]; read-out: MIC50
  MIC50: 1 µg/mL (≈ 2.73 µM)
[8]; read-out: MIC90
  MIC90: 2 µg/mL (≈ 5.47 µM)
[8]; read-out: MIC Range
  MIC: 0.5 to 8 µg/mL (≈ 1.37 to 21.9 µM)
[9]
  MIC: 2 to 8 µg/mL (≈ 5.47 to 21.9 µM)
[10]; read-out: MIC Range
  MIC: 0.12 to 1 µg/mL (≈ 0.328 to 2.73 µM)
[10]; E. faecium (VanS), 11 isolates, read-out: MIC50
  MIC50: 0.5 µg/mL (≈ 1.37 µM)
[10]; E. faecium (VanS), 11 isolates, read-out: MIC90
  MIC90: 1 µg/mL (≈ 2.73 µM)
[11]
  MIC90: 0.25 µg/mL (≈ 0.683 µM)
[11]; read-out: MIC Range
  MIC: 0.12 to 0.25 µg/mL (≈ 0.328 to 0.683 µM)
[11]; E. faecalis (VanS), 17 isolates, read-out: MIC50
  MIC50: 0.25 µg/mL (≈ 0.683 µM)
[12]; read-out: MIC50
  MIC50: 1 µg/mL (≈ 2.73 µM)
[12]; read-out: MIC90
  MIC90: 2 µg/mL (≈ 5.47 µM)
[12]; read-out: MIC Range
  MIC: 0.12 to 8 µg/mL (≈ 0.328 to 21.9 µM)
[13]
  MIC: 0.008 to 0.03 µg/mL (≈ 0.0219 to 0.082 µM)
[13]; read-out: MIC50
  MIC50: 0.015 µg/mL (≈ 0.041 µM)
[13]; read-out: MIC90
  MIC90: 0.015 µg/mL (≈ 0.041 µM)
[14]
  MIC: 0.004 to 0.25 µg/mL (≈ 0.0109 to 0.683 µM)
[14]; read-out: MIC50
  MIC50: 0.015 µg/mL (≈ 0.041 µM)
[14]; read-out: MIC90
  MIC90: 0.03 µg/mL (≈ 0.082 µM)
[15]
  MIC: 0.008 to 0.015 µg/mL (≈ 0.0219 to 0.041 µM)
[16]; Klebsiella
  MIC50: 0.03 µg/mL (≈ 0.082 µM)
  MIC90: 0.03 µg/mL (≈ 0.082 µM)
[16]; Klebsiella spp., 29 isolates, read-out: MIC Range
  MIC: 0.004 to 0.12 µg/mL (≈ 0.0109 to 0.328 µM)
[17]
  MIC50: 0.03 µg/mL (≈ 0.082 µM)
  MIC90: 0.06 µg/mL (≈ 0.164 µM)
[17]; P. mirabilis, 20 isolates, read-out: MIC Range
  MIC: 0.03 to 0.06 µg/mL (≈ 0.082 to 0.164 µM)
[18]; Providencia
  MIC90: 0.03 µg/mL (≈ 0.082 µM)
[18]; Providencia spp., 28 isolates, read-out: MIC50
  MIC50: 0.015 µg/mL (≈ 0.041 µM)
[18]; Providencia spp., 28 isolates, read-out: MIC Range
  MIC: 0.008 to 0.12 µg/mL (≈ 0.0219 to 0.328 µM)
[19]
  MIC50: 0.03 µg/mL (≈ 0.082 µM)
  MIC90: 0.03 µg/mL (≈ 0.082 µM)
[19]; read-out: MIC Range
  MIC: 0.03 to 0.12 µg/mL (≈ 0.082 to 0.328 µM)
[20]
  MIC90: 0.5 µg/mL (≈ 1.37 µM)
[20]; P. aeruginosa (CiproS), 24 isolates, read-out: MIC50
  MIC50: 0.12 µg/mL (≈ 0.328 µM)
[20]; P. aeruginosa (CiproS), 24 isolates, read-out: MIC Range
  MIC: 0.015 to 0.5 µg/mL (≈ 0.041 to 1.37 µM)
[21]; read-out: MIC Range
  MIC: 2 to 32 µg/mL (≈ 5.47 to 87.5 µM)
[21]; P. aeruginosa (CiproR), 20 isolates, read-out: MIC50
  MIC50: 4 µg/mL (≈ 10.9 µM)
[21]; P. aeruginosa (CiproR), 20 isolates, read-out: MIC90
  MIC90: 8 µg/mL (≈ 21.9 µM)
[22]
  MIC90: 0.25 µg/mL (≈ 0.683 µM)
[22]; read-out: MIC Range
  MIC: 0.12 to 0.25 µg/mL (≈ 0.328 to 0.683 µM)
[22]; C. difficile, 10 isolates, read-out: MIC50
  MIC50: 0.25 µg/mL (≈ 0.683 µM)
[23]
  MIC50: 0.12 µg/mL (≈ 0.328 µM)
[23]; C. perfringens, 13 isolates
  MIC90: 0.12 µg/mL (≈ 0.328 µM)
[23]; read-out: MIC Range
  MIC: 0.06 to 0.12 µg/mL (≈ 0.164 to 0.328 µM)
[24]; read-out: MIC50
  MIC50: 0.008 µg/mL (≈ 0.0219 µM)
[24]; read-out: MIC90
  MIC90: 0.008 µg/mL (≈ 0.0219 µM)
[24]; read-out: MIC Range
  MIC: 0.004 to 0.008 µg/mL (≈ 0.0109 to 0.0219 µM)
[25]
  MIC50: 0.06 µg/mL (≈ 0.164 µM)
  MIC90: 0.12 µg/mL (≈ 0.328 µM)
[25]; read-out: MIC Range
  MIC: 0.03 to 0.12 µg/mL (≈ 0.082 to 0.328 µM)
[26]
  MIC: 0.015 to 0.03 µg/mL (≈ 0.041 to 0.082 µM)
[27]
  MIC90: 0.015 µg/mL (≈ 0.041 µM)
[27]; N. gonorrhoeae, 12 isolates, read-out: MIC50
  MIC50: 0.004 µg/mL (≈ 0.0109 µM)
[27]; N. gonorrhoeae, 12 isolates, read-out: MIC Range
  MIC: 0.004 to 0.015 µg/mL (≈ 0.0109 to 0.041 µM)
[28]
  MIC90: 0.03 µg/mL (≈ 0.082 µM)
[28]; H. pylori, 17 isolates, read-out: MIC50
  MIC50: 0.015 µg/mL (≈ 0.041 µM)
[28]; H. pylori, 17 isolates, read-out: MIC Range
  MIC: 0.008 to 0.03 µg/mL (≈ 0.0219 to 0.082 µM)
[29]
  MIC90: 32 µg/mL (≈ 87.5 µM)
[29]; M. avium, 20 isolates, read-out: MIC50
  MIC50: 16 µg/mL (≈ 43.7 µM)
